Experimental data as given in publication PMC5881582 (ChemMedChem, 2017).
Read-outs that look alike come from different tables or passages of the source.

Key:
[1] = tested on: acetylation of histones H3 and H4 in SH-SY5Y cells; assay: histone H3 and H4 acetylation by Western blot; format: cell-based, human; conditions: 5 µM; for acetylation of H3 and H4: 6 h; for time-dependent increase in acetylation of H3 and H4: 24 h
[2] = tested on: acetylation of histones H3 and H4 in HT-29 cells; assay: histone H3 and H4 acetylation by Western blot; format: cell-based, human; conditions: HT-29, 5 µM; for time-dependent increase in acetylation of H3 and H4: 24 h
[3] = tested on: acetylation of α-tubulin (HDAC6 substrate) in SH-SY5Y cells; assay: α-tubulin acetylation by Western blot; format: cell-based, human; conditions: 5 µM, 6 h
[4] = tested on: acetylation of α-tubulin (HDAC6 substrate) in HT-29 cells; assay: α-tubulin acetylation by Western blot; format: cell-based, human; conditions: HT-29, 5 µM; for acetylation level of α-tubulin: 6 h; for time-dependent increase in acetylation of α-tubulin: 24 h
recombinant human HDAC1 = recombinant human HDAC1 (Homo sapiens, UniProt Q13547); assay: competitive fluorescence-based HDAC deacetylase assay, Boc-L-Lys; format: biochemical; conditions: read-out: IC50 HDAC1; mean ± SD of at least two independent experiments
recombinant human HDAC3 = recombinant human HDAC3 (Homo sapiens, UniProt O15379); assay: as above; format: biochemical; conditions: for Selectivity HDAC3/HDAC1: HDAC3 IC50 divided by HDAC1 IC50; for IC50: read-out: IC50 HDAC3, mean ± SD of at least two independent experiments
[5] = molecular target: T1, purified recombinant human HDAC8 (Homo sapiens, UniProt Q9BY41); assay: fluorescence-based HDAC8 assay, commercially available HDAC substrate; format: biochemical; conditions: for Selectivity HDAC8/HDAC1: HDAC8 IC50 divided by HDAC1 IC50; for IC50: read-out: IC50 HDAC8, mean ± SD of at least two independent experiments
T1 sequence (Q9BY41 1-377): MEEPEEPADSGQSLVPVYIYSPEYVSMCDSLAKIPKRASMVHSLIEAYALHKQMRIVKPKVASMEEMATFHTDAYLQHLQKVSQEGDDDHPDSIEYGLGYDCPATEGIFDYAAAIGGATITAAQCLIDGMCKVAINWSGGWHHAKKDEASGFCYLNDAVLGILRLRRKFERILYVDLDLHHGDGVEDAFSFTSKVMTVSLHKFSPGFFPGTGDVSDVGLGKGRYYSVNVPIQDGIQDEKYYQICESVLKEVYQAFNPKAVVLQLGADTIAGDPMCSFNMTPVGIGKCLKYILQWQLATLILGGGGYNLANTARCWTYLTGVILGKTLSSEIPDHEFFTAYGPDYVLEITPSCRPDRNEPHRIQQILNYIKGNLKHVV

recombinant human HDAC2 = recombinant human HDAC2 (Homo sapiens, UniProt Q92769); assay: competitive fluorescence-based HDAC deacetylase assay, Boc-L-Lys; format: biochemical; conditions: for Selectivity HDAC2/HDAC1: HDAC2 IC50 divided by HDAC1 IC50; for IC50: read-out: IC50 HDAC2, mean ± SD of at least two independent experiments
HT-29 cells = assay: antiproliferative alamarBlue assay; conditions: n=4
SH-SY5Y cells = assay: antiproliferative alamarBlue assay; conditions: n=4
microsomal stability [6] = format: in vitro ADME, rat; conditions: after 30 min incubation
MCF-7 cells = assay: antiproliferative alamarBlue assay; conditions: 10 µM, NA = no inhibition at 10 µM
[7] = plasma and brain concentrations after i.p. dosing; format: in vivo, Spraugue Dawley rats
microsomal stability [8] = format: in vitro ADME, human; conditions: after 30 min incubation
[9] = read-out: EC50 HT-29 24 h, 24 h
[10] = read-out: EC50 HT-29 48 h, 48 h
[11] = read-out: EC50 SH-SY5Y 24 h, 24 h
[12] = read-out: EC50 SH-SY5Y 48 h, 48 h

Chain of recombinant human HDAC2 (Q92769 whole entry): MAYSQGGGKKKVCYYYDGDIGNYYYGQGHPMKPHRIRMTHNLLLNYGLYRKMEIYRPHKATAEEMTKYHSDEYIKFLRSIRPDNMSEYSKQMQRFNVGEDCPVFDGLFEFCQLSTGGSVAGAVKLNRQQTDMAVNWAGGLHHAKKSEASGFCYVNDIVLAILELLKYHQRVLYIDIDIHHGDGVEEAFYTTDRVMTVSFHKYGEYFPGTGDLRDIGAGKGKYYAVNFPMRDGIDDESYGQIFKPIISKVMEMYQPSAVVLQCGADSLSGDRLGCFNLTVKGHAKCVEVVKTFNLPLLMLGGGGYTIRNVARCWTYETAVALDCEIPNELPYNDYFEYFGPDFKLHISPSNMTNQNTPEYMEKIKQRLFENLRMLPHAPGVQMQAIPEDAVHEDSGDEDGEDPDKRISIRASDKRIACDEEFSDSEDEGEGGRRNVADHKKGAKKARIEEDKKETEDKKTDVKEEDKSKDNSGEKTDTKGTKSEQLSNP
Chain of recombinant human HDAC3 (O15379 whole entry): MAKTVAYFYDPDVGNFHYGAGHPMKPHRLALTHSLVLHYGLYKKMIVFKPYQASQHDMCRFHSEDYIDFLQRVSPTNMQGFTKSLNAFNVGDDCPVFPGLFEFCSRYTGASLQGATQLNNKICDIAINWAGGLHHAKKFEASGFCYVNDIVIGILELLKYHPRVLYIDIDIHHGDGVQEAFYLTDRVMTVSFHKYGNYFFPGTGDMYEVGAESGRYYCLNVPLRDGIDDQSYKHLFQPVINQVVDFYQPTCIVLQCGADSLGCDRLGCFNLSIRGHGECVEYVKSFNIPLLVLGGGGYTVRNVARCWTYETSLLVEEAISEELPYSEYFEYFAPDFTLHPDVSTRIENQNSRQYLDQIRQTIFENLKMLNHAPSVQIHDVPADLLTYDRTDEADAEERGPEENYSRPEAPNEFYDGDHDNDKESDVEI
Chain of recombinant human HDAC3 (Q9Y618 395-489 partner limits assumed): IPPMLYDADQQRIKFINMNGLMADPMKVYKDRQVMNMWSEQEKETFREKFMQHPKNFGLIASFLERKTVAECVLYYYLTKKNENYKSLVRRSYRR
Chain of recombinant human HDAC1 (Q13547 whole entry): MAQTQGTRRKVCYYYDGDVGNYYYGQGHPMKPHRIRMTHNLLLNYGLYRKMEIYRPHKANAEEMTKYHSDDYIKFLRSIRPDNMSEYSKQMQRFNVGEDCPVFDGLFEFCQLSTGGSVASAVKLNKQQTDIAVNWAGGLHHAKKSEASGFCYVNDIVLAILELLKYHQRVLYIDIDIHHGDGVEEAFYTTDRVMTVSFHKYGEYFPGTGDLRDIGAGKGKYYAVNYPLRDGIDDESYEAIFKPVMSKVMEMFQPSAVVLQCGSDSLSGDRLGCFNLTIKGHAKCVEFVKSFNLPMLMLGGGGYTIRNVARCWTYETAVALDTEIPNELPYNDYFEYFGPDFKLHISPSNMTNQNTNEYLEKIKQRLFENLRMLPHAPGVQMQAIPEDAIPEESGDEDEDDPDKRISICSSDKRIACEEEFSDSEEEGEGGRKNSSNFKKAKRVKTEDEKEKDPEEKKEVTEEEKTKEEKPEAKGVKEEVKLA

With O=C(CCCCCCC(=O)Nc1ccccc1)NO [compound 1, SAHA, reference compound] the “acetylation of H3 and H4” value [1] was “acetylation of both H3 and H4 was increased”, the “time-dependent increase in acetylation of H3 and H4” value [1] was “time-dependent increase in acetylation of H3 and H4 was observed” and the “acetylation level of H3” value ([2]; 6 h) was “increased the acetylation level of H3”. The “time-dependent increase in acetylation of H3 and H4” value [2] was “unable to cause any significant time-dependent increase”, the “acetylation of α-tubulin” value [3] was “increased the acetylation of α-tubulin” and the “acetylation level of α-tubulin” value [4] was “increased the acetylation level of α-tubulin”. The “time-dependent increase in acetylation of α-tubulin” value [4] was “time-dependent increase in acetylation of α-tubulin”.

With O=C(CCCCCCNCc1ccc2ccccc2c1)NO [compound 2g] the “acetylation of H3 and H4” value [1] was “acetylation of both H3 and H4 was increased”, the “time-dependent increase in acetylation of H3 and H4” value [1] was “time-dependent increase in acetylation of H3 and H4 was observed” and the “acetylation level of H3” value ([2]; 6 h) was “increased the acetylation level of H3”. For the same molecule, the “acetylation of H4” value ([2]; 6 h) was “significantly increase acetylation of H4”, the “time-dependent increase in acetylation of H3 and H4” value [2] was “time-dependent increase in acetylation of H3 and H4 was observed” and the IC50 (recombinant human HDAC1) was 0.039 ± 0.003 µM. For the same molecule, the “Selectivity HDAC3/HDAC1” value (recombinant human HDAC3) was 1.7, the IC50 (recombinant human HDAC3) was 0.068 ± 0.002 µM and the “Selectivity HDAC8/HDAC1” value [5] was 8.2. The IC50 [5] was 0.32 ± 0.026 µM, the “acetylation of α-tubulin” value [3] was “increased the acetylation of α-tubulin” and the “Selectivity HDAC2/HDAC1” value (recombinant human HDAC2) was 8.2. It also gave an IC50 (recombinant human HDAC2) of 0.32 ± 0.013 µM, an EC50 (HT-29 cells; [9]) greater than 50 µM and an EC50 (HT-29 cells; [10]) of 1.1 ± 0.11 µM. For the same molecule, the EC50 (SH-SY5Y cells; [11]) was greater than 50 µM, the EC50 (SH-SY5Y cells; [12]) was 1.2 ± 0.22 µM and the “acetylation level of α-tubulin” value [4] was “increased the acetylation level of α-tubulin”.

With O=C(CCCCCCNCc1cc2ccccc2[nH]1)NO [compound 2j] the “acetylation of H3 and H4” value [1] was “acetylation of both H3 and H4 was increased”, the “time-dependent increase in acetylation of H3 and H4” value [1] was “time-dependent increase in acetylation of H3 and H4 was observed” and the “acetylation level of H3” value ([2]; 6 h) was “increased the acetylation level of H3”. For the same molecule, the “time-dependent increase in acetylation of H3 and H4” value [2] was “time-dependent increase in acetylation of H3 and H4 was observed”, the IC50 (recombinant human HDAC1) was 0.061 ± 0.0059 µM and the “percent left in RLM” value (microsomal stability [6]) was 85%. The “Growth inhibition percentage MCF-7 24 h” value (MCF-7 cells) was 61%, the “Selectivity HDAC3/HDAC1” value (recombinant human HDAC3) was 0.41 and the IC50 (recombinant human HDAC3) was 0.025 ± 0.002 µM. The “Selectivity HDAC8/HDAC1” value [5] was 10, the IC50 [5] was 0.62 ± 0.042 µM and the “brain concentration fold above IC50 for HDAC1” value ([7]; 20 min) was 6.7 fold. For the same molecule, the “brain concentration fold above IC50 for HDAC2” value ([7]; 20 min) was 1.6 fold, the “brain concentration fold above IC50 for HDAC3” value ([7]; 20 min) was 16 fold and the “plasma concentration fold higher than IC50 for HDAC1” value ([7]; 20 min) was 230 fold. The “plasma concentration fold higher than IC50 for HDAC2” value ([7]; 20 min) was 54 fold, the “plasma concentration fold higher than IC50 for HDAC3” value ([7]; 20 min) was 560 fold and the “plasma concentration fold higher than IC50 for HDAC8” value ([7]; 20 min) was 23 fold. The “brain concentration fold higher than the IC50 for class I HDACs” value ([7]; abstract) was greater than 1.6 fold, the “plasma concentration fold higher than the IC50 for class I HDACs” value ([7]; abstract) was greater than 23 fold and the Plasma level ([7]; rat, 25 mg/kg i.p., 20 min) was 3.82 ± 2.05 µg/mL. The “molar concentration in brain” value ([7]; rat, 25 mg/kg i.p., 20 min) was 0.41 µM, the “molar concentration in plasma” value ([7]; rat, 25 mg/kg i.p., 20 min) was 14 µM and the rat brain level ([7]; rat, 25 mg/kg i.p., 20 min) was 122 ± 21 ng/mL. The Plasma level ([7]; rat, 25 mg/kg i.p., 40 min) was 2.1 ± 0.72 µg/mL, the rat brain level ([7]; rat, 25 mg/kg i.p., 40 min) was 107 ± 15 ng/mL and the “acetylation of α-tubulin” value [3] was “increased the acetylation of α-tubulin”. The “Selectivity HDAC2/HDAC1” value (recombinant human HDAC2) was 4.2, the IC50 (recombinant human HDAC2) was 0.26 ± 0.015 µM and the EC50 (HT-29 cells; [9]) was greater than 50 µM. It also gave an EC50 (HT-29 cells; [10]) of 2.1 ± 0.17 µM, an EC50 (SH-SY5Y cells; [11]) greater than 50 µM and an EC50 (SH-SY5Y cells; [12]) of 1.3 ± 0.39 µM. The “percent left in HLM” value (microsomal stability [8]) was 12%, the “acetylation level of α-tubulin” value [4] was “increased the acetylation level of α-tubulin” and the “time-dependent increase in acetylation of α-tubulin” value [4] was “time-dependent increase in acetylation of α-tubulin”.
